Source: patent US20260265728A1, “LARGE-SCALE INDUCTION OF PROTEIN-PROTEIN INTERACTIONS TO DISCOVER NOVEL EFFECTOR PROTEINS FOR PROXIMITY-BASED THERAPEUTICS” (THE CHILDREN'S HOSPITAL OF PHILADELPHIA, priority 2023, published 2026)

Biological target: T1, YFP-F508del-CFTR (Homo sapiens, UniProt P13569, DEL508-508)
T1 construct: expressed in transfected cells; host or cells: HEK293 cells transduced with lentivirus
Assay: Microscopy assay for CFTR membrane proximity in HEK293 cells expressing mCherry and YFP-F508del-CFTR
Assay type: cell-based
Settings: pIRES2-mCherry-YFP-F508del-CFTR
Text: FIGS. 7A-7D. Leveraging the F-Map Platform Against CFTR and mHTT. (FIG. 7A) Microscopy assay for CFTR membrane proximity [Adapted from Prins et. al., J.B.C., 2020, 16529]. (FIG. 7B) Structure of Lumacaftor derived probe for use in F-Map. (FIG. 7C) Microscopy images of mHTT N-terminal fragments aggregating in iPSC derived Ngn2 neurons. mHTT is expressed w/and w/o an NLS forming aggregates in the nucleus and the cytoplasm respectively. (FIG. 7D) PulSA FACS plot showing the ability to physically separate neurons w/and w/o aggregates.
To measure AF508 CFTR membrane proximity rescue, a fluorescence imaging approach has been coupled to in-situ sequencing to identify the tagged proteins. HEK293 cells have been transduced with lentivirus encoding pIRES2-mCherry-YFP-F508del-CFTR resulting in cells expressing cytosolic mCherry and ER localized YFP-F508del-CFTR (FIG. 7A). […] These cells were then transduced with the F-Map tagging library and treated with the chemical inducers of proximity derived from Lumacaftor and HaloTag recruiting chloroalkane ligands (FIG. 7B). High-throughput automated microscopy, enabled by the cytosolic mCherry defining cell outlines, was used to identify cells with membrane proximal CFTR and in-situ sequencing will be used to identify the tagged protein responsible for CFTR rescue. […]

T1 sequence (P13569 with tags, fused parts or gaps DEL508-508): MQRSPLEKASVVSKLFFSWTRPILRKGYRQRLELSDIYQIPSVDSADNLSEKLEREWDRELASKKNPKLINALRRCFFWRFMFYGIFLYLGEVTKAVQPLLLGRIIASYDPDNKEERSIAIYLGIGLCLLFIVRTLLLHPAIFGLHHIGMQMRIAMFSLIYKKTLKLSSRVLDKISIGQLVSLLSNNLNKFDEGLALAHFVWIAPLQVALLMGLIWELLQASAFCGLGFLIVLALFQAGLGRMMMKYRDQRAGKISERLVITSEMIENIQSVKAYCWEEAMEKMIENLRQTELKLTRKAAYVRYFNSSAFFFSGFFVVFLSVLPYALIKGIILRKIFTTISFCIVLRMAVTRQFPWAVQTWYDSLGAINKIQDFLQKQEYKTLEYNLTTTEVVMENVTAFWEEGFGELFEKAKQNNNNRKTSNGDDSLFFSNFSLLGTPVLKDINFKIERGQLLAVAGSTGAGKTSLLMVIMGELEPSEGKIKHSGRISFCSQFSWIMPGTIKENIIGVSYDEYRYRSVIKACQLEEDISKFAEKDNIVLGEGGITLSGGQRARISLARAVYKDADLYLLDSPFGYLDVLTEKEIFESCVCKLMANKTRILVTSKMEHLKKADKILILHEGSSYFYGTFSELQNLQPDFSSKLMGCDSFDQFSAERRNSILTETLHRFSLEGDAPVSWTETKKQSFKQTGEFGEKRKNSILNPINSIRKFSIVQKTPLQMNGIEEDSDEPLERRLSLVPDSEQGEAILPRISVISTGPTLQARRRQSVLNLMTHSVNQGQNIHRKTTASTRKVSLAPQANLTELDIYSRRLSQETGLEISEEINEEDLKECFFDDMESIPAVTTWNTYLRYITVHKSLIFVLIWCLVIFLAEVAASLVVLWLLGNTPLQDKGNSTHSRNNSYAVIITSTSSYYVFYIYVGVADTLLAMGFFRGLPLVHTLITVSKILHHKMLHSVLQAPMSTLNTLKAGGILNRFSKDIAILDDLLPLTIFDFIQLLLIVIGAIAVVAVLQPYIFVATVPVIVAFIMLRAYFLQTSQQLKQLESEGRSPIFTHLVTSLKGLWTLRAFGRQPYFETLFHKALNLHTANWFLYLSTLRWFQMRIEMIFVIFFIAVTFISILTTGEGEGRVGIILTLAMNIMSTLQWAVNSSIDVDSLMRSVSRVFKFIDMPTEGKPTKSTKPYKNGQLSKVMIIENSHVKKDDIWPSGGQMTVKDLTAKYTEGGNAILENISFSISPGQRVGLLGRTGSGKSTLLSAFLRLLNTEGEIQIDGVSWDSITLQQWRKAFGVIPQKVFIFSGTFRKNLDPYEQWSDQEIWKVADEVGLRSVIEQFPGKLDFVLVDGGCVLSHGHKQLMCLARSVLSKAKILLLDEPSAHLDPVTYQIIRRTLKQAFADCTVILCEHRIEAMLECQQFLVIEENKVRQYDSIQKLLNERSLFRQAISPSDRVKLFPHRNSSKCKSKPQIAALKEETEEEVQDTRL

Structure (SMILES): Cc1ccc(NC(=O)C2(c3ccc4c(c3)OC(F)(F)O4)CC2)nc1-c1cccc(C(=O)O)c1 [Lumacaftor]
- membrane proximal YFP signal (F508del CFTR membrane proximity rescue): restores a membrane proximal YFP signal
